Measurements from PubChem BioAssay (NCI).
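Cultured in 96-well plates, cells were exposed to test compound for 48 hours across five concentrations. GI50 marks 50% less growth. At the TGI there is no net growth.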

Key:
Assay in all cases: growth of human tumour cells (NCI), 48 h
HL-60(TB) leukemia = system: HL-60(TB) leukemia
HCT-15 colon = system: HCT-15 colon
A498 renal = system: A498 renal
RPMI-8226 leukemia = system: RPMI-8226 leukemia
NCI-H23 lung = system: NCI-H23 lung
MDA-MB-468 breast = system: MDA-MB-468 breast
T-47D breast = system: T-47D breast
HCT-116 colon = system: HCT-116 colon
TK-10 renal = system: TK-10 renal
NCI-H522 lung = system: NCI-H522 lung
MALME-3M melanoma = system: MALME-3M melanoma
KM12 colon = system: KM12 colon
SNB-75 CNS = system: SNB-75 CNS
COLO 205 colon = system: COLO 205 colon
UACC-62 melanoma = system: UACC-62 melanoma
DU-145 prostate = system: DU-145 prostate
MDA-MB-435 = system: MDA-MB-435
HOP-92 NSCLC = system: HOP-92 NSCLC
BT-549 breast = system: BT-549 breast
SNB-19 CNS = system: SNB-19 CNS
SK-MEL-5 melanoma = system: SK-MEL-5 melanoma
OVCAR-3 ovarian = system: OVCAR-3 ovarian
LOX IMVI melanoma = system: LOX IMVI melanoma
HT29 colon = system: HT29 colon
SF-268 CNS = system: SF-268 CNS
786-0 renal = system: 786-0 renal
U251 CNS = system: U251 CNS
RXF 393 renal = system: RXF 393 renal
NCI-H460 lung = system: NCI-H460 lung
HOP-62 NSCLC = system: HOP-62 NSCLC
CAKI-1 renal = system: CAKI-1 renal
K-562 leukemia = system: K-562 leukemia
PC-3 prostate = system: PC-3 prostate
ACHN renal = system: ACHN renal
OVCAR-5 ovarian = system: OVCAR-5 ovarian
SR leukemia = system: SR leukemia
SF-539 CNS = system: SF-539 CNS
MOLT-4 leukemia = system: MOLT-4 leukemia
UACC-257 melanoma = system: UACC-257 melanoma
M14 melanoma = system: M14 melanoma
EKVX NSCLC = system: EKVX NSCLC
HS 578T breast = system: HS 578T breast
MDA-MB-231 breast = system: MDA-MB-231 breast
NCI-H226 lung = system: NCI-H226 lung
SN12C renal = system: SN12C renal
NCI/ADR-RES ovarian = system: NCI/ADR-RES ovarian
SK-MEL-2 melanoma = system: SK-MEL-2 melanoma
SF-295 CNS = system: SF-295 CNS
MCF7 breast = system: MCF7 breast
SW-620 colon = system: SW-620 colon
SK-MEL-28 melanoma = system: SK-MEL-28 melanoma
UO-31 renal = system: UO-31 renal
OVCAR-4 ovarian = system: OVCAR-4 ovarian
CCRF-CEM leukemia = system: CCRF-CEM leukemia
OVCAR-8 ovarian = system: OVCAR-8 ovarian
HCC-2998 colon = system: HCC-2998 colon
IGROV1 ovarian = system: IGROV1 ovarian
A549 NSCLC = system: A549 NSCLC
SK-OV-3 ovarian = system: SK-OV-3 ovarian

Structure (SMILES): Cc1ccc(-c2cc(C(=O)N=Nc3c(O)[nH]c4ccccc34)c3ccccc3n2)cc1
- GI50 (HL-60(TB) leukemia): 6.54 µM
- TGI (HL-60(TB) leukemia): 43.9 µM
- GI50 (HCT-15 colon): 3.87 µM
- TGI (HCT-15 colon): 17.9 µM
- GI50 (A498 renal): 19.3 µM
- TGI (A498 renal): 39.8 µM
- GI50 (RPMI-8226 leukemia): 5.34 µM
- TGI (RPMI-8226 leukemia): > 100 µM
- GI50 (NCI-H23 lung): 4.67 µM
- TGI (NCI-H23 lung): 26.1 µM
- GI50 (MDA-MB-468 breast): 3.41 µM
- TGI (MDA-MB-468 breast): 15.4 µM
- GI50 (T-47D breast): 5.38 µM
- TGI (T-47D breast): 47.3 µM
- GI50 (HCT-116 colon): 1.97 µM
- TGI (HCT-116 colon): 4.46 µM
- GI50 (TK-10 renal): 20.6 µM
- TGI (TK-10 renal): 40.9 µM
- GI50 (NCI-H522 lung): 9.85 µM
- TGI (NCI-H522 lung): 25.6 µM
- GI50 (MALME-3M melanoma): 6.38 µM
- TGI (MALME-3M melanoma): 21.1 µM
- GI50 (KM12 colon): 5.84 µM
- TGI (KM12 colon): 73.4 µM
- GI50 (SNB-75 CNS): 2.54 µM
- TGI (SNB-75 CNS): 17.3 µM
- GI50 (COLO 205 colon): 15.4 µM
- TGI (COLO 205 colon): 37.9 µM
- GI50 (UACC-62 melanoma): 12.7 µM
- TGI (UACC-62 melanoma): 32.1 µM
- GI50 (DU-145 prostate): 5.48 µM
- TGI (DU-145 prostate): 37.6 µM
- GI50 (MDA-MB-435): 3 µM
- TGI (MDA-MB-435): 11.5 µM
- GI50 (HOP-92 NSCLC): 11.2 µM
- TGI (HOP-92 NSCLC): 36.4 µM
- GI50 (BT-549 breast): 3.09 µM
- TGI (BT-549 breast): 18 µM
- GI50 (SNB-19 CNS): 10.6 µM
- TGI (SNB-19 CNS): 48.5 µM
- GI50 (SK-MEL-5 melanoma): 5.66 µM
- TGI (SK-MEL-5 melanoma): 20 µM
- GI50 (OVCAR-3 ovarian): 5.2 µM
- TGI (OVCAR-3 ovarian): 25 µM
- GI50 (LOX IMVI melanoma): 3.63 µM
- TGI (LOX IMVI melanoma): 15.8 µM
- GI50 (HT29 colon): 7.14 µM
- TGI (HT29 colon): 25.8 µM
- GI50 (SF-268 CNS): 12.8 µM
- TGI (SF-268 CNS): > 100 µM
- GI50 (786-0 renal): 2.87 µM
- TGI (786-0 renal): 9.8 µM
- GI50 (U251 CNS): 3.02 µM
- TGI (U251 CNS): 10.7 µM
- GI50 (RXF 393 renal): 1.88 µM
- TGI (RXF 393 renal): 6.11 µM
- GI50 (NCI-H460 lung): 2.87 µM
- TGI (NCI-H460 lung): 8.25 µM
- GI50 (HOP-62 NSCLC): 13.5 µM
- TGI (HOP-62 NSCLC): 29.1 µM
- GI50 (CAKI-1 renal): 4.56 µM
- TGI (CAKI-1 renal): 21.5 µM
- GI50 (K-562 leukemia): 3.19 µM
- TGI (K-562 leukemia): > 100 µM
- GI50 (PC-3 prostate): 17.2 µM
- TGI (PC-3 prostate): > 100 µM
- GI50 (ACHN renal): 10.3 µM
- TGI (ACHN renal): 22.2 µM
- GI50 (OVCAR-5 ovarian): 8.67 µM
- TGI (OVCAR-5 ovarian): 26.7 µM
- GI50 (SR leukemia): 2.38 µM
- TGI (SR leukemia): > 100 µM
- GI50 (SF-539 CNS): 3.27 µM
- TGI (SF-539 CNS): 11.3 µM
- GI50 (MOLT-4 leukemia): 4.23 µM
- TGI (MOLT-4 leukemia): 38.5 µM
- GI50 (UACC-257 melanoma): 14.3 µM
- TGI (UACC-257 melanoma): 32.2 µM
- GI50 (M14 melanoma): 7.76 µM
- TGI (M14 melanoma): 27.8 µM
- GI50 (EKVX NSCLC): 6.08 µM
- TGI (EKVX NSCLC): 30.4 µM
- GI50 (HS 578T breast): 4.84 µM
- TGI (HS 578T breast): 88.9 µM
- GI50 (MDA-MB-231 breast): 2.39 µM
- TGI (MDA-MB-231 breast): 6.41 µM
- GI50 (NCI-H226 lung): 10.6 µM
- TGI (NCI-H226 lung): 28.6 µM
- GI50 (SN12C renal): 3.15 µM
- TGI (SN12C renal): 14.5 µM
- GI50 (NCI/ADR-RES ovarian): 2.24 µM
- TGI (NCI/ADR-RES ovarian): 6.11 µM
- GI50 (SK-MEL-2 melanoma): 23.9 µM
- TGI (SK-MEL-2 melanoma): 60.4 µM
- GI50 (SF-295 CNS): 13.3 µM
- TGI (SF-295 CNS): 28.5 µM
- GI50 (MCF7 breast): 4.39 µM
- TGI (MCF7 breast): 33.4 µM
- GI50 (SW-620 colon): 6.07 µM
- TGI (SW-620 colon): 34 µM
- GI50 (SK-MEL-28 melanoma): 11.9 µM
- TGI (SK-MEL-28 melanoma): 26.6 µM
- GI50 (UO-31 renal): 10.7 µM
- TGI (UO-31 renal): 22.6 µM
- GI50 (OVCAR-4 ovarian): 3.43 µM
- TGI (OVCAR-4 ovarian): 26.6 µM
- GI50 (CCRF-CEM leukemia): 4.73 µM
- TGI (CCRF-CEM leukemia): > 100 µM
- GI50 (OVCAR-8 ovarian): 2.84 µM
- TGI (OVCAR-8 ovarian): 9.15 µM
- GI50 (HCC-2998 colon): 3.84 µM
- TGI (HCC-2998 colon): 15.3 µM
- GI50 (IGROV1 ovarian): 5.89 µM
- TGI (IGROV1 ovarian): 23.1 µM
- GI50 (A549 NSCLC): 3.99 µM
- TGI (A549 NSCLC): 22 µM
- GI50 (SK-OV-3 ovarian): 18.1 µM
- TGI (SK-OV-3 ovarian): 36.4 µM
